The target of this experiment is T1, ADP sensor (mTFP1-ParM-mVenus cp157 terminal fusion; ADPrime sensor, soluble form) (Escherichia coli, UniProt P11904, C287A/K33A/T174A/T175N).
T1 construct: ParM flanked by FRET reporters: wild-type mTFP1 via SGITS linker at N-terminus, mVenus-cp157 via AAA linker at C-terminus; expressed in E. coli DH5alpha
T1 sequence (P11904 1-320 K33A/T174A/T175N/C287A): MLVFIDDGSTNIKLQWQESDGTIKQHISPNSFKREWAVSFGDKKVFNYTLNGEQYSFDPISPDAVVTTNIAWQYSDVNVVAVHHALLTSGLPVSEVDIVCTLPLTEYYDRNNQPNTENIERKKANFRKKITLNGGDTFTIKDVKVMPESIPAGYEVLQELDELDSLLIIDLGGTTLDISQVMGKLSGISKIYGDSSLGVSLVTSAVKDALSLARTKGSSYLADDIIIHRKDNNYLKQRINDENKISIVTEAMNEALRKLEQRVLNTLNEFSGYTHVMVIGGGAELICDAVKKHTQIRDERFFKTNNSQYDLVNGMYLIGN
As to the kind of experiment: FRET ratio (mTFP1/mVenus) dose response, Hill fit. The format is binding. The settings on record: read-out: apparent Kd.

Kd data for 2 compounds are collected here from PMC6695626, “Detection of Osmotic Shock-Induced Extracellular Nucleotide Release with a Genetically Encoded Fluorescent Sensor of ADP and ATP” (Sensors (Basel, Switzerland), 2019).

With `Nc1ncnc2c1ncn2[C@@H]1O[C@H](COP(=O)(O)OP(=O)(O)OP(=O)(O)O)[C@@H](O)[C@H]1O` [ATP], the Kd was found to be 9.9 ± 6.3 µM.

As to `Nc1ncnc2c1ncn2[C@@H]1O[C@H](COP(=O)(O)OP(=O)(O)O)[C@@H](O)[C@H]1O` [ADP], the Kd was 0.16 ± 0.06 µM.
